{
  "source": "patent US12070462B2",
  "about": "“SETBP1 inhibitors for the treatment of myeloid neoplasms and solid tumors” (The Henry M. Jackson Foundation for the Advancement of …, priority 2018, dated 2024)",
  "key": {"[1]": {"test_system": "Setbp1(D/N)-induced leukemia", "test": "Mice transplanted with Setbp1(D/N)-induced AML, treatment with Compound (1AA)", "format": "in vivo, mouse", "settings": "33 mg/kg, five intra-peritoneal injections from day 10 after transplantation, vs vehicle", "experimental": "(§1) In Vitro and In Vivo Testing of Compound (1AA). The activity of Compound 1AA against myeloid neoplasms was first determined in vitro by assessing its inhibitory effect on the colony formation by Setbp1/Setbp1(D/N)-immortalized mouse myeloid progenitors on IMDM methylcellulose medium with 20% horse serum plus mouse Scf (50 ng/ml) and Il-3 (10 ng/ml). The in vivo activity of Compound 1AA was evaluated by assessing its capability to reduce spleen size and to extend the survival of mice transplanted with Setbp1(D/N)-induced leukemia cells. For the generation of leukemic mice, 5×10^5 spleen cells from a primary recipient mouse with Setbp1(D/N)-induced leukemia were injected into the tail vein of each sublethally irradiated (550 rads from a ^137Cs source) B6-Ly5.2 female mouse. Starting from day 10 after transplantation, the recipient mice were treated with Compound (1AA) (33 mg/kg, dissolved in saline) or saline through five intra-peritoneal injections. The activity of Compound 1AA against solid tumors is determined by assessing its growth inhibitory effects on different human solid tumor cell lines in culture. Specifically, cellular ATP levels of liquid cultures of these cell lines are measured at 72 hours after treatment with serially diluted concentrations of Compound 1AA and compared to untreated cells."}, "[2]": {"test_system": "Setbp1-immortalized mouse myeloid progenitors", "test": "Colony formation on methylcellulose by Setbp1-immortalized myeloid progenitors", "format": "cell-based", "settings": "for colony formation: Setbp1-immortalized cells, 1 nM, 5 nM, 10 nM, and 100 nM", "experimental": "as §1\n(§2) Cell Culture Studies of Immortalized Myeloid Progenitors. […]"}, "[3]": {"test_system": "Setbp1(D/N)-immortalized mouse myeloid progenitors", "test": "Colony formation on methylcellulose by Setbp1(D/N)-immortalized myeloid progenitors", "format": "cell-based", "settings": "for colony formation: Setbp1 (D/N)-immortalized cells, 1 nM", "experimental": "as §1, §2"}, "[4]": {"test_system": "Setbp1(D/N)-immortalized myeloid progenitors", "test": "Apoptosis (Annexin V) and differentiation/cytotoxicity (cytospin) in Setbp1(D/N)-immortalized cells", "format": "cell-based, mouse", "settings": "for differentiation/cytotoxicity: Setbp1 (D/N)-immortalized cells, 100 nM", "experimental": "(§3) Cell Culture Studies of Immortalized Myeloid Progenitors. Mouse myeloid progenitors immortalized by 3×FLAG-tagged Setbp1 and Setbp1(D/N) were generated and maintained as previously described using pMYs-3×FLAG-Setbp1-IRES-GFP and pMYs-3×FLAG-Setbp1(D/N)-IRES-GFP viruses respectively (Oakley et al., Blood 119(25): 6099-6108 (2012). Lentiviral transduction of these immortalized cells was carried out by spinoculation in which a mixture of lentivirus and target cells was spun at 2000×g for 90 minutes at 37° C. Transduced cells were selected by treatment with puromycin (2 μg/ml) for 24 hours at 24 hours after lentiviral transduction. Colony formation assays for transduced cells were performed at 48 hours after infection using 1×10^4 puromycin-resistant cells on IMDM methylcellulose medium supplemented with 20% horse serum, mouse Scf (100 ng/ml) and II-3 (10 ng/ml), and puromycin (2 μg/ml) with colony numbers counted after 7 days. For studying effects of KPT-185 (Selleck Chemicals, Houston, TX) in liquid culture, immortalized cells were treated at 2.5×10^5 cells/ml concentration. Detection of apoptosis was performed using PE Annexin V Apoptosis Detection Kit (BD Biosciences). KPT-185 was directly added to methylcellulose medium for assessing its effects on colony formation by immortalized cells."}, "[5]": {"test_system": "Setbp1-immortalized myeloid progenitor cells", "test": "Apoptosis (Annexin V) and differentiation/cytotoxicity (cytospin) in Setbp1-immortalized cells", "format": "cell-based, mouse", "settings": "for differentiation/cytotoxicity: 100 nM", "experimental": "as §3"}, "[6]": {"test_system": "Hoxa9, Hoxa10 and Myb mRNA levels", "test": "Real-time RT-PCR of Setbp1(D/N) target genes in Setbp1(D/N)-immortalized cells", "format": "cell-based, mouse", "settings": "for Setbp1 (D/N) target transcription levels of Hoxa9, Hoxa10 and Myb: Setbp1 (D/N)-immortalized cells, 12 hours post-treatment, 1 nM", "experimental": "as §3\n(§4) Real-Time RT-PCR. For real-time RT-PCR, total RNA was extracted from cells using Nucleospin RNA (Clontech, Duren, Germany). Oligo-dT-primed cDNA samples were prepared using Superscript III (Invitrogen), and real-time PCR analysis was performed in triplicates using SYBR green detection reagents (Invitrogen) on a QuantStudio real time PCR system (Applied Biosystems, Foster City, CA). Relative changes in expression were calculated according to the ΔΔCt method. The cycling conditions were 50° C. for 2 minutes followed by 95° C. for 2 minutes, and then 40 cycles of 95° C. for 15 seconds and 60° C. for 1 minute. […]"}, "[7]": {"test_system": "Hoxa9, Hoxa10 and Myb mRNA levels", "test": "Real-time RT-PCR of Setbp1 target genes in Setbp1-immortalized cells", "format": "cell-based, mouse", "settings": "for Setbp1 target transcription levels of Hoxa9, Hoxa10 and Myb: 12 hours post-treatment, 1 nM", "experimental": "as §3, §4"}, "[8]": {"biological_target": "T1, interaction between Setbp1(D/N) and XPO1 (Mus musculus, UniProt Q9Z180, D859N)", "T1 construct": "expressed in transfected cells; host or cells: HEK293T", "T1 sequence (Q9Z180 whole entry D859N)": "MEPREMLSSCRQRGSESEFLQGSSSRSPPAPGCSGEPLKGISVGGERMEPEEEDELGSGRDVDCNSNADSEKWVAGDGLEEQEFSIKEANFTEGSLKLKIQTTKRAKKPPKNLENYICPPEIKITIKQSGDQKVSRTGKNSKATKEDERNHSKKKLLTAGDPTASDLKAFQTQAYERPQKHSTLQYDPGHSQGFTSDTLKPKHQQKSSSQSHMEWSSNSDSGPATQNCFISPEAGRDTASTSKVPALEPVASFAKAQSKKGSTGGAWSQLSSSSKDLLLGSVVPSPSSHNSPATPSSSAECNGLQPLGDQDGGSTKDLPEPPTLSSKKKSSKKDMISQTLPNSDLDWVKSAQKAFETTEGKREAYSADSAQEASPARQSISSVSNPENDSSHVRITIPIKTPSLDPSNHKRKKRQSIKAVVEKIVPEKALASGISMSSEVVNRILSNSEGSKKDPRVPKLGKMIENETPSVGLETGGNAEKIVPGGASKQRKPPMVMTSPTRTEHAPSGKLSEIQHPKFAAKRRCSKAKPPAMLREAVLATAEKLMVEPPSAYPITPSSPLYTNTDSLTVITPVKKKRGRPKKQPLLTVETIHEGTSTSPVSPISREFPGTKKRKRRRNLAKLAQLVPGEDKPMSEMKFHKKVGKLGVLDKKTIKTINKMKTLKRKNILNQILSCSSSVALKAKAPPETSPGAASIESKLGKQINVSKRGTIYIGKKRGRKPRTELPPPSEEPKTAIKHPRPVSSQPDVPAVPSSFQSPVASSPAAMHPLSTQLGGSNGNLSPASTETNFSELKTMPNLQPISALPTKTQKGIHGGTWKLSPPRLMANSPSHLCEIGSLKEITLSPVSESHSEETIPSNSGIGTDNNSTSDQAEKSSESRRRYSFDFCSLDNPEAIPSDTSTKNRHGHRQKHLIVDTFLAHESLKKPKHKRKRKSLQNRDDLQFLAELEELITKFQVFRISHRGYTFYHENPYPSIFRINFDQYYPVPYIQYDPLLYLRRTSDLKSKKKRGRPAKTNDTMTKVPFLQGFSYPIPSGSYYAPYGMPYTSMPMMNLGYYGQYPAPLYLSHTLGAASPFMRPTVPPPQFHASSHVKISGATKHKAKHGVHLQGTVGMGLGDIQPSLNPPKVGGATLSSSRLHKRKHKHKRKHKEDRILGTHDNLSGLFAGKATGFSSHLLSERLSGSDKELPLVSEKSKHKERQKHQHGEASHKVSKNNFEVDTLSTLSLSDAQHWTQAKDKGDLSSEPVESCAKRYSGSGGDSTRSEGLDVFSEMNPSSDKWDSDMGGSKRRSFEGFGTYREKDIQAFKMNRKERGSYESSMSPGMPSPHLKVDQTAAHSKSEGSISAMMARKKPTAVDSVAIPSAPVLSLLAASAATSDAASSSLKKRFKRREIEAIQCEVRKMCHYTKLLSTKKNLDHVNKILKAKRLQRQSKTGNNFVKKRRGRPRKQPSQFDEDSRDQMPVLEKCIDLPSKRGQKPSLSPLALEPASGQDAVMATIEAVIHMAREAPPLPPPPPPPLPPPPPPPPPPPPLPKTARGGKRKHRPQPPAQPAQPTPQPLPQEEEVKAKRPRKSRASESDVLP", "test": "Co-immunoprecipitation / Western blotting of nuclear extracts of transfected HEK293T cells", "format": "cell-based", "settings": "1 μM, 10 μM and 25 μM, 12 hours, M2 immunoprecipitates", "experimental": "Western blotting analyses using indicated specific antibodies were performed on M2 immunoprecipitates prepared from nuclear extracts of HEK293T cells transiently transfected with pMYs-3×FLAG-Setbp1-IRES-GFP and subsequently treated with different concentrations of Compound (1AA) and control DMSO for 12 hours.\nImmunoprecipitation. HEK293T cells were transfected with the indicated expression constructs using LipoD293 (SignaGen Laboratories, Rockville, MD) and nuclear extracts were isolated 48 hours after transfection using the Nuclear Complex Co-IP kit (Active Motif, Carlsbad, CA). Nuclear lysates were incubated with either 4 μg of anti-Flag M2 (Sigma Aldrich, St. Louis, MO) or anti-XPO1 (NB100-79802, Novus Biological, Centennial, CO) for 4 hours at 4° C. Subsequently, Dynabeads protein A (Invitrogen, Carlsbad, CA) were added to the nuclear lysate/antibody mixture and incubated for an additional 2 hours at 4° C. Immunoprecipitated proteins were eluted and analyzed by Western blotting analysis. For immunoprecipitation experiments using in vitro transcribed and translated proteins, the corresponding cDNAs were cloned into pCMV-TNT and the TnT T7 Coupled Wheat Germ Extract (Promega, Madison, WI) system was used according to the manufacturer's instructions.\nWestern Blotting Analysis. […]"}, "[9]": {"test_system": "Setbp1(D/N)-induced leukemia", "test": "Mice transplanted with Setbp1(D/N)-induced AML, treatment with KPT-330", "format": "in vivo, mouse", "experimental": "Bone Marrow Transplantation and In Vivo Treatment with KPT-330. For generation of leukemic mice, 1×10^6 spleen cells from a primary recipient mouse with Setbp1(D/N)-induced leukemia were injected into the tail vein of each lethally irradiated (1100 rads from a ^137Cs source) B6-Ly5.2 female mouse along with 7.5×10^5 supporting bone marrow cells from un-irradiated B6-Ly5.2 mice. Starting from day 7 after transplantation, the recipient mice were treated with KPT-330 (20 mg/kg, dissolved in 2% DMSO/49% PEG300/ddH2O) or vehicle through oral gavage once every two days. KPT-330 was purchased from Selleck Chemicals."}},
  "data": [
    {"smiles": "Cc1c2cc[n+](CCN3CCCCC3)cc2c(C)c2c1[nH]c1ccc(O)cc12.[Br-]", "note": "[Compound (1AA)]", "values": [
      {"measurement": "spleen size (spleen weights when moribund)", "setting": "[1]", "value": "reduced the spleen size"},
      {"measurement": "survival of leukemic mice", "setting": "[1]; p=0.0034, Log-rank test", "value": "significantly extended the survival"},
      {"measurement": "colony formation", "setting": "[2]", "value": "inhibits colony formation"},
      {"measurement": "colony formation", "setting": "[3]; 5 nM, 10 nM, and 100 nM", "value": "inhibits colony formation"},
      {"measurement": "differentiation/cytotoxicity", "setting": "[4]", "value": "induces differentiation/cytotoxicity"},
      {"measurement": "differentiation/cytotoxicity", "setting": "[5]", "value": "induces differentiation/cytotoxicity"},
      {"measurement": "Setbp1 (D/N) target transcription levels of Hoxa9, Hoxa10 and Myb", "setting": "[6]; 10 nM, 100 nM and 500 nM", "value": "reduces Setbp1 (D/N) target transcription levels"},
      {"measurement": "Setbp1 target transcription levels of Hoxa9, Hoxa10 and Myb", "setting": "[7]; 10 nM, 100 nM and 500 nM", "value": "reduces Setbp1 target transcription levels"},
      {"measurement": "interaction between Setbp1(D/N) and XPO1", "setting": "[8]", "value": "disrupts the interaction"}
    ]},
    {"smiles": "Nc1ccc(Cn2ccc3c4c(N)nc(N)nc4ccc32)cc1", "note": "[Compound (2AA)]", "values": [
      {"measurement": "colony formation", "setting": "[2]", "value": "inhibits colony formation"},
      {"measurement": "colony formation", "setting": "[3]; 10 nM, 50 nM, 100 nM, 300 nM and 500 nM", "value": "inhibits colony formation"},
      {"measurement": "differentiation/cytotoxicity", "setting": "[4]", "value": "induces differentiation/cytotoxicity"},
      {"measurement": "differentiation/cytotoxicity", "setting": "[5]", "value": "induces differentiation/cytotoxicity"},
      {"measurement": "Setbp1 (D/N) target transcription levels of Hoxa9, Hoxa10 and Myb", "setting": "[6]; 50 nM, 100 nM and 300 nM", "value": "reduces Setbp1 (D/N) target transcription levels"},
      {"measurement": "Setbp1 target transcription levels of Hoxa9, Hoxa10 and Myb", "setting": "[7]; 50 nM, 100 nM and 300 nM", "value": "reduces Setbp1 target transcription levels"}
    ]},
    {"smiles": "COc1cc(-c2ncn(/C=C\\C(=O)OC(C)C)n2)cc(C(F)(F)F)c1", "note": "[KPT-185, reference compound]", "values": [
      {"measurement": "relative colony-forming potential", "setting": "[2]; Setbp1-immortalized myeloid progenitors, indicated concentrations, vs DMSO", "value": "significantly reduces colony-forming potential"},
      {"measurement": "relative colony-forming potential", "setting": "[3]; Setbp1(D/N)-immortalized myeloid progenitors, indicated concentrations, vs DMSO", "value": "significantly reduces colony-forming potential"},
      {"measurement": "apoptosis (Annexin V staining)", "setting": "[4]; Setbp1(D/N)-immortalized cells, 48 hours after treatment, vs DMSO", "value": "induces apoptosis"},
      {"measurement": "differentiation (cytospin)", "setting": "[4]; Setbp1(D/N)-immortalized cells, 72 hours after treatment", "value": "induces apoptosis and differentiation"},
      {"measurement": "apoptosis (Annexin V staining)", "setting": "[5]; 48 hours after treatment, vs DMSO", "value": "induces apoptosis"},
      {"measurement": "differentiation: number of mature neutrophils (cytospin)", "setting": "[5]; 72 hours after treatment", "value": "significantly increase"},
      {"measurement": "Hoxa9/Hoxa10/Myb mRNA levels", "setting": "[6]; Setbp1(D/N)-immortalized cells, 300 nM, 2.5 hours after treatment, vs DMSO", "value": "significantly down-regulated"},
      {"measurement": "Hoxa9/Hoxa10/Myb mRNA levels", "setting": "[7]; 300 nM, 2.5 hours after treatment, vs DMSO", "value": "significantly down-regulated"}
    ]},
    {"smiles": "O=C(/C=C\\n1cnc(-c2cc(C(F)(F)F)cc(C(F)(F)F)c2)n1)NNc1cnccn1", "note": "[KPT-330]", "values": [
      {"measurement": "extension of survival time", "setting": "[9]; 20 mg/kg oral gavage every 2 days from day 7, vehicle mice moribund in 17 days", "value": "≤ 50", "unit": "%"},
      {"measurement": "survival of transplanted mice", "setting": "[9]; 20 mg/kg oral gavage every 2 days from day 7 after transplantation, vs vehicle, p=0.012, Log-rank test", "value": "prolonged the survival"}
    ]}
  ]
}
